The term melting point denotes the temperature of the solid-liquid transition.

`CC(=O)N(c1nc2cc3nc(N(C(C)=O)N4CCCCC4C)sc3cc2s1)N1CCCCC1C` (stereo unspecified) displayed a melting point of 242 to 245 °C.

For the compound `O=C(O)CCCc1cccc(OCc2ccccc2)c1`, the melting point was in the range of 100 to 102 °C. As for `CC(OC(=O)c1ccccc1)P(=O)(O)OC(CCCCN)C(=O)N1CCCC1C(=O)O` (stereo unspecified), the melting point lay in the range of 186 to 192 °C. With `COc1ccc(S(=O)(=O)N2Cc3ccccc3N(C(=O)c3cccc(C(F)(F)F)c3)CC2C(=O)O)cc1` (stereo unspecified) the figure was 105 to 110 °C; with `Nn1c(C(F)(F)F)cc(-c2ccc(C(F)(F)F)cc2)cc1=O`, 125 °C; with `C=CC(C)c1cc(C)c2c(c1O)C(N(C)C(=O)c1cccnc1)C1CCCCC21` (stereo unspecified), 183 to 184 °C. With `CCOC(=O)c1cnc(Cl)cc1Cl` the figure was 32 to 32.5 °C; with `CC(=O)CCc1ccc(-c2ccccc2F)cc1`, 30 °C. `O=C(O)CNC(=O)c1nc(Cl)c2cc(Cl)c(Cl)cc2c1O` displayed a melting point of 265 °C.

`COc1ccc(N2C(=O)c3ccc(Cl)cc3C2CC(=O)O)cc1` (stereo unspecified) registered a melting point of 250 to 251 °C. With `COC(=O)c1cc(C(=O)c2cccc(Cl)c2)cn1C` the figure was 126 °C; with `CNC(=O)Oc1ccc(N=Cc2ccccc2O)c2c1OC(C)(C)C2`, 201 to 203 °C. Under `O=[N+]([O-])c1ccc(CO)c(Cl)c1` stands 62 to 64 °C. Consider `CCOc1cc2cc(CO)nc(-c3ccnc(-n4nc(-c5cc(OC)c(OC)c(OC)c5)c5sccc5c4=O)c3)c2cc1OCC`, for which the melting point was 250 to 251 °C. Under `COC(=O)C1(Cc2ccc(Br)cc2)CCCN1C(=O)Nc1cc(Cl)cc(Cl)c1` (stereo unspecified) stands 171 °C. `CCCc1nccn1C(C)COCC1=C(C(=O)OCC)C(c2ccccc2Cl)C2=C(CCCC2=O)N1` (stereo unspecified) displayed a melting point of 127 to 131 °C. With `CCOc1nn(Cc2ccc(OCc3nc(-c4ccco4)oc3C)nc2)cc1CC(=O)O` the figure was 155 to 156 °C; with `C=CCOc1cn(C)c2cc(F)ccc2c1=O`, 158 to 159 °C. `CCOc1ccccc1C=[N+]([O-])C1CCCCC1` came in with a melting point of 124 °C. Take `Oc1ccc(N2CCSCC2)cc1`: the melting point lay in the range of 156 to 158 °C.

`CNc1ccc(C(=O)c2ccccc2)cc1[N+](=O)[O-]` registered a melting point of 198 to 201 °C.

In the case of `O=[N+]([O-])c1cnc2ccc(O)cc2c1-c1ccccc1`, the melting point was in the range of 282 to 284 °C. In the case of `COC(=O)c1cc(Cl)c(Cl)cc1C#N`, the melting point was 120 to 123 °C. `COc1cc(-c2nc3sccn3c2-c2ccnc(NC3CCN(S(=O)(=O)C4CC4)CC3)n2)ccc1F` had a melting point of 146 to 148 °C. For the compound `COc1ccc2c(c1)CNCCO2`, the melting point lay in the range of 96 to 97 °C. Under `Cc1ccc(C(=O)Nc2ccc(CN(C)C)c(C(F)(F)F)c2)cc1Br` stands 156 to 157 °C; under `CCCC(CCC)N1CCc2c(C(=O)O)cc(F)cc2C1=O`, 143 °C; under `CCCCCCN(Cc1ccccn1)C(Nc1cc(C(C)(C)C)c(O)c(C(C)(C)C)c1)=C1C(=O)OC(C)(C)OC1=O`, 169 to 170 °C.

For the compound `Cc1cc2c(c(-c3cccc(Cl)c3)c1)OC(CN)C2` (stereo unspecified), the melting point is 90 to 93 °C.

`COC(=O)c1ccc2c(Cl)c(C(=O)Cl)sc2c1`: the melting point is 259 to 260 °C.

For the compound `CCNC(=O)NC(=O)Nc1ccccc1`, the melting point lay within 80 to 81.5 °C.

The compound `Nc1cccc2snnc12` had a melting point of 67 °C. Under `C=Cc1ccc(C#N)cn1` stands 29 to 30 °C. With `CCCCCCCNC(=O)N(C)c1cccc(-c2cc(F)c(CCC(=O)O)c(F)c2)c1` the figure was 86 °C; with `ON=CNc1nc(OCc2ccc(F)cc2)ncc1F`, 169 to 171 °C; with `CC(=O)NC1CCS(=O)(=O)c2sc(S(N)(=O)=O)cc21` (stereo unspecified), 263 to 265 °C. `CC1(C)OC(C=Cc2ccsc2)=CC1=O`: the melting point lay in the range of 79 to 80 °C. With `CCCCCCCCCCCCC/C=C(\C(=O)Nc1ccc(C(=O)OC)cc1)c1ccc2c(c1)C(C)(C)CCC2(C)C` the figure was 93 to 94 °C; with `COc1ccc(N2CCCn3c2nc2c(Cl)ccc(C(O)(C4CC4)C4CC4)c23)c(C)n1`, 208 to 210 °C. `O=C1CC(NCCCOc2cccc(CN3CCCCC3)c2)=Nc2ccccc21`: the melting point is 171 to 172 °C.

The compound `c1ccc(C(=C2CCNCC2)c2ccccc2)cc1` had a melting point of 85 to 86 °C. With `CCOC(=O)CCC(=O)Nc1cccc(/C=C/c2nc(C3CCC3)cs2)c1` the figure was 98 to 100 °C; with `CCOC(=O)Cc1nc(-c2ccc(Cl)cc2)oc1C`, 69 to 70 °C; with `Cc1c([N+](=O)[O-])ccc2[nH]cc(CCCO)c12`, 129 to 130 °C. Compound `O=C(Nc1cc(C(F)(F)F)cc(C(F)(F)F)c1)c1ccccc1O` registered a melting point of 196 to 198 °C. With `CCCC(O)c1cc(-c2ccc(F)cc2)oc1C` (stereo unspecified) the figure was 96 to 97 °C; with `CCCCCCCCCCCCCCCCOCC(COC(c1ccccc1)(c1ccccc1)c1ccccc1)COS(C)(=O)=O` (stereo unspecified), 39 °C. Consider `O=C1CCC(N2Cc3c(OCc4ccc5ccccc5n4)cccc3C2=O)C(=O)N1` (stereo unspecified), for which the melting point is 269 to 271 °C. With `N=C(NO)C1(c2ccccc2Br)CC1` the figure was 164 to 167 °C; with `COCC1(O)CCN(c2ccc(N3C[C@H](CNC(C)=O)OC3=O)cc2)CC1`, 152 to 154 °C. With `COCc1nc(C(C)(C)O)c(C(=O)O)n1Cc1ccc(-c2ccccc2C(=O)O)cc1` the figure was 164 to 165 °C; with `Cc1cc(-c2c(F)cc3c(=O)c(C(=O)O)cn(C4CC4)c3c2F)cc(C)n1`, 246 to 248 °C.

`O=C1Nc2cc(C(F)(F)F)ccc2N2CCN(CCc3ccncc3)CC12` (stereo unspecified) returned a melting point of 204 to 206 °C. With `CC(C)(C)OC(=O)COc1cc(NC(=O)OC(C)(C)C)c([N+](=O)[O-])cc1C#Cc1ccccc1` the figure was 130 °C. Under `O=C1NC(C(=O)NCCCO[N+](=O)[O-])CS1` (stereo unspecified) stands 83 to 85 °C; under `COc1ccc(Cl)c(CBr)c1`, 51 to 52 °C; under `FC(F)(F)COC(c1ccccc1)(c1ccccc1)c1ccccc1`, 111 °C.

`CN1CCC2(CC1)CNc1cc(Cl)ccc12` registered a melting point of 172 to 173 °C. `O=C(O)CCCc1cc(-c2ccccc2)nc2ccccc12` had a melting point of 125 °C. Consider `COc1ccc(C(=O)CCCCCBr)cc1OC`, for which the melting point lay within 38 to 40 °C. With `COc1ccc(Oc2ccc(C(=O)N(C(C)C)C3CCCCC3)cc2)cc1OC` the figure was 107 °C. For the compound `N#Cc1ccc2c(c1)CN1C(=Nc3cccnc3)SC[C@@H]1C2`, the melting point is 172 °C. `CNS(=O)(=O)c1ccc(C)cc1C(=O)O` had a melting point of 140 to 141 °C. Consider `CCCCc1nc(-c2ccco2)n[nH]1`, for which the melting point is 73 to 74 °C. With `Cc1ccc(-c2ccc3c(c2)C=C(C(=O)Nc2ccc(C4=NCCN4)cc2)CCO3)cc1` the figure was 282 to 283 °C.

`COC1C(CO)OC(n2cnc3c(N)ncnc32)C1(C)O` (stereo unspecified) displayed a melting point of 180 °C.

The record behind these values is a melting point compilation (Tetko et al.; mined from patent text by program, amines drawn as free bases though some values may be those of a salt).
